Measurements: patent US9351988B2, “Macrocyclic lactones and use thereof” (UNIVERSITE DE GENEVE, priority 2011, dated 2016)

Tests used:
[1] = system: Human colon adenocarcinoma cell line (LS174T); experiment: BrdU incorporation proliferation assay in LS174T cells; assay type: cell-based; conditions: 48 h
Experimental: (§1) Human colon adenocarcinoma cell line (LS174T), human primary colon cancer cells (CC14) and primary metastatic cells (mCC11) were treated with Avermectin B1 (MicroSource Discovery systems, CT, USA), 5 μM. Control cells were treated with equivalent concentration of DMSO. 48 h after treatment, the percentage of BrdU incorporation was calculated for cells treated with Avermectin B1 as compared to control cells as follows: the number of BrdU positive cells over total number of cells expressed as percentage compared to control cells treated with DMSO only. Cells were cultivated in standard conditions (37° C., 5% CO2) in DMEM containing 10% Fetal Calf Serum.
The same assay as described in Example 1 was carried out on human colon adenocarcinoma cell line LS174T where cell samples were either treated with Abamectin (Sigma #31732) or Doramectin (Sigma #33993) at three different concentrations: 0.1, 1 and 5 μM. Control cells were treated with equivalent concentration of DMSO. 48 h after treatment, the percentage of BrdU incorporation was calculated for cells treated with each macrocyclic lactone as compared to control cells as described above.
(§2) The same assay as described in Example 1 was carried out on human primary colon cancer cells (CC14 and CC36) (TNM IV and III, respectively) and primary metastatic cells (mCC11) from the liver of the patient, on the human adenocarcinoma cell lines DLD1, LS174T, and SW180 and on human skin melanoma cell lines MeWo and SKMel2 where cell samples were treated with Ivermectin (Fabron Iberica S.A.U) or Stromectol™ (Merck & Co. Inc.) which is an oral pharmaceutical formulation of semisynthetic Ivermectin (mixture containing at least 90% 5-O-demethyl-22,23-dihydroavermectin A1a and less than 10% 5-O-demethyl-25-de(1-methylpropyl)-22,23-dihydro-25-(1-methylethyl)avermectin A1a, generally referred to as 22,23-dihydroavermectin B1a and B1b, or H2B1a and H2B1b) at different concentrations: 0.5, 1, 2.5, 5 and 10 μM (Ivermectin diluted in DMSO, Stromectol in Ethanol). Control cells were treated with equivalent concentrations of DMSO. 48 h after treatment the level of BrdU incorporation was calculated for cells treated with each macrocyclic lactone as compared to control cells as described above. IC50 values are calculated by interpolation from a dose response curve fitted using PRISM (Graphpad Software).

[2] = system: primary metastatic cells (mCC11); experiment: BrdU incorporation proliferation assay in mCC11 cells; assay type: cell-based, human; conditions: 48 h
Experimental: as §1
(§3) The same assay as described in Example 1 was carried out on human primary colon cancer cells (CC14 and CC36) (TNM IV and III, respectively) and primary metastatic cells (mCC11) from the liver of the patient where cell samples were treated with Abamectin (Sigma #31732) at three different concentrations: 0.1, 1 and 5 μM. Control cells were treated with equivalent concentrations of DMSO. 48 h after treatment the level of BrdU incorporation was calculated for cells treated with each macrocyclic lactone as compared to control cells as described above.
as §2, with “Control cells were treated with equivalent concentrations of DMSO. 48 h after treatment the level of BrdU incorporation was calculated for cells treated with each macrocyclic lactone as compared to control cells as described above. IC50 values are calculated by interpolation from a dose response curve fitted using PRISM (Graphpad Software).” left out

[3] = system: human primary colon cancer cells (CC36); experiment: BrdU incorporation proliferation assay in CC36 cells; assay type: cell-based; conditions: 48 h
Experimental: as §1
as §3, with “above. […]” for “above.”

[4] = system: human primary colon cancer cells (CC14); experiment: BrdU incorporation proliferation assay in CC14 cells; assay type: cell-based; conditions: 48 h
Experimental: as §1, §3
as §2, with “Control cells were treated with equivalent concentrations of DMSO. 48 h after treatment the level of BrdU incorporation was calculated for cells treated with each macrocyclic lactone as compared to control cells as described above. IC50 values are calculated by interpolation from a dose response curve fitted using PRISM (Graphpad Software).” left out

Wnt pathway = experiment: Key Wnt target gene expression by quantitative real time PCR in LS174 cells; assay type: cell-based, human; conditions: 12 h after 5 μM Avermectin B1 (vs DMSO) or dnTCF4 expression (vs control plasmid)
Experimental: Key Wnt target gene expression was determined by quantitative real time PCR in LS174 colon adenocarcinoma cell line expressing a dominant negative TCF4 cDNA (dnTCF4) or 12 h after treatment with 5 μM Avermectin B1 (MicroSource Discovery systems, CT, USA). Control cell samples were treated with equivalent concentrations of DMSO. Cells were cultivated in standard conditions as described in Example 1.
Expression levels of individual genes are shown as a percentage compared to their expression levels in control cells treated with DMSO only in the case of Avermectin B1, or transfected with control plasmid in the case of dnTCF4, and are shown in Table 1 below: […]

[5] = system: human DLD1 CC cell xenografts; experiment: Mouse xenografts of human colon cancer (DLD1) cells; assay type: in vivo, nude NMRI mice; conditions: DLD1 xenografts in nude mice, 10 mg/kg; comparable to dnTCF4 (transgenic Wnt inhibition)
Experimental: Six- to eight-week-old female nude NMRI (Naval Medical Research Institute) mice each receive two injections of 10^5-10^6 human DLD1 CC cells on their backs as independent subcutaneous xenografts. As soon as the tumor is palpable (1-2 mm) (usually 7-10 days following xenograft), a range of concentrations of Ivermectin (Fabron Iberica S.A.U) or Abamectin (Sigma #31732) (0 (excipient only), 10, 50 and 100 mg/kg/day) is given by oral gavage combined with corn oil or is administered intra-peritoneally (IP) combined with 2-hydroxypropyl-β-cyclodextrin (Sigma, 45% solution) in a second set of experiments. Tumor size is periodically measured with a caliper. Mice are sacrificed before the tumors approach the legal size limit and the tumors are removed and analysed for proliferation (BrdU assay), apoptosis (Caspase3 assay, Varnat et al., 2009, EMBO Mol. Med., 1, 338-351) and invasion (Varnat et al., 2010, above). Control mice are treated with carrier-only control cells, or cells expressing a dominant-negative TCF4 construct (dnTCF4), which acts to actively repress Wnt-TCF signalling.

[6] = system: human adenocarcinoma cell line DLD1; experiment: BrdU incorporation proliferation assay in DLD1 cells; assay type: cell-based; conditions: DLD1, 0.5, 1, 2.5, 5 and 10 μM, 48 h
Experimental: as §1, with “Serum. […]” for “Serum.”

[7] = system: human adenocarcinoma cell line SW180; experiment: BrdU incorporation proliferation assay in SW180 cells; assay type: cell-based; conditions: SW180, 0.5, 1, 2.5, 5 and 10 μM, 48 h
Experimental: as §1, with “Serum. […]” for “Serum.”

[8] = system: human skin melanoma cell line SKMel2; experiment: BrdU incorporation proliferation assay in SKMel2 cells; assay type: cell-based; conditions: SKMel2, 0.5, 1, 2.5, 5 and 10 μM, 48 h
Experimental: as §1, with “Serum. […]” for “Serum.”

[9] = system: human glioblastoma cancer cell lines and cells from primary human glioblastoma tumors; experiment: BrdU incorporation proliferation assay in glioblastoma cells; assay type: cell-based; conditions: 48 h
[10] = system: human skin melanoma cell line MeWo; experiment: BrdU incorporation proliferation assay in MeWo cells; assay type: cell-based; conditions: MeWo, 0.5, 1, 2.5, 5 and 10 μM, 48 h
Experimental: as §1, with “Serum. […]” for “Serum.”

Molecule: CO[C@H]1C[C@H](O[C@H]2[C@H](C)O[C@@H](O[C@@H]3/C(C)=C/C[C@@H]4C[C@@H](C[C@]5(C=C[C@H](C)[C@@H](C6CCCCC6)O5)O4)OC(=O)[C@@H]4C=C(C)[C@@H](O)[C@H]5OC/C(=C\C=C\[C@@H]3C)[C@]54O)C[C@@H]2OC)O[C@@H](C)[C@@H]1O [Doramectin, 25-cyclohexyl-5-O-demethyl-25-de(1-methylpropyl)avermectin A1a]
- proliferation (BrdU incorporation), dose-effect ([1]; LS174T, 0.1, 1 and 5 μM): decreases proliferation in a dose-dependent manner

Molecule: Abamectin
- proliferation (BrdU incorporation), dose-effect ([2]; mCC11, 0.1, 1 and 5 μM): decreases proliferation in a dose-dependent manner
- proliferation (BrdU incorporation), dose-effect ([1]; LS174T, 0.1, 1 and 5 μM): decreases proliferation in a dose-dependent manner
- proliferation (BrdU incorporation), dose-effect ([3]; CC36, 0.1, 1 and 5 μM): decreases proliferation in a dose-dependent manner
- proliferation (BrdU incorporation), dose-effect ([4]; CC14, 0.1, 1 and 5 μM): decreases proliferation in a dose-dependent manner

Molecule: Avermectin B1
- proliferation (percentage of BrdU incorporation compared to DMSO control) ([2]; mCC11, 5 μM): decreases to a minimum of half the proliferation
- proliferation (percentage of BrdU incorporation compared to DMSO control) ([1]; LS174T, 5 μM): decreases to a minimum of half the proliferation
- proliferation (percentage of BrdU incorporation compared to DMSO control) ([4]; CC14, 5 μM): decreases to a minimum of half the proliferation
- AXIN2 expression level as percentage compared to control cells (Wnt pathway): 62%
- C-MYC expression level as percentage compared to control cells (Wnt pathway): 35%
- EPHB2 expression level as percentage compared to control cells (Wnt pathway): 78%
- EPHB3 expression level as percentage compared to control cells (Wnt pathway): 55%
- EPNB1 expression level as percentage compared to control cells (Wnt pathway): 277%
- LGR5 expression level as percentage compared to control cells (Wnt pathway): 3%
- P21 expression level as percentage compared to control cells (Wnt pathway): 635%

Molecule: Ivermectin
- colon cancer xenograft growth [5]: able to inhibit colon cancer xenograft growth
- proliferation (BrdU incorporation), dose-effect ([2]; mCC11, 0.5, 1, 2.5, 5 and 10 μM): decreases proliferation in a dose-dependent manner
- proliferation (BrdU incorporation), dose-effect ([1]; LS174T, 0.5, 1, 2.5, 5 and 10 μM): decreases proliferation in a dose-dependent manner
- proliferation (BrdU incorporation), dose-effect [6]: decreases proliferation in a dose-dependent manner
- proliferation (BrdU incorporation), dose-effect [7]: decreases proliferation in a dose-dependent manner
- proliferation (BrdU incorporation), dose-effect ([3]; CC36, 0.5, 1, 2.5, 5 and 10 μM): decreases proliferation in a dose-dependent manner
- proliferation (BrdU incorporation), dose-effect [8]: decreases proliferation in a dose-dependent manner
- proliferation (BrdU incorporation), dose-effect ([4]; CC14, 0.5, 1, 2.5, 5 and 10 μM): decreases proliferation in a dose-dependent manner
- proliferation (BrdU incorporation), dose-effect [9]: decreases proliferation in a dose-dependent manner
- proliferation (BrdU incorporation), dose-effect [10]: decreases proliferation in a dose-dependent manner
